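Interpolation was linear, between the two tested concentrations surrounding the appropriate level; five concentrations were tested over 48 hours in 96-well plates. GI50 = concentration required for 50% inhibition of growth.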 The source made the active and inactive calls. Cut-off read from the data, not from the text of the source: active = GI50 up to about 1.1 µM and inactive = higher.
What was measured:
Experiment in all cases: growth of human tumour cells (NCI), 48 h
M14 = system: M14
Hs-578T = system: Hs-578T
Malme-3M = system: Malme-3M
K562 = system: K562
LOX IMVI = system: LOX IMVI
CCRF-CEM = system: CCRF-CEM
DU-145 = system: DU-145
HL-60 = system: HL-60
SF-539 = system: SF-539
MDA-N = system: MDA-N
NCI-H23 = system: NCI-H23
SW-620 = system: SW-620
SK-OV-3 = system: SK-OV-3
CAKI-1 = system: CAKI-1
HCT-15 = system: HCT-15
HOP-62 = system: HOP-62
HCC 2998 = system: HCC 2998
PC-3 = system: PC-3
T47D = system: T47D
MCF7 = system: MCF7
SR = system: SR
TK-10 = system: TK-10
ACHN = system: ACHN
A549 = system: A549
HT-29 = system: HT-29
SNB-75 = system: SNB-75
RPMI-8226 = system: RPMI-8226
NCI-H522 = system: NCI-H522
KM12 = system: KM12
OVCAR-5 = system: OVCAR-5
NCI/ADR-RES = system: NCI/ADR-RES
UACC-257 = system: UACC-257
OVCAR-4 = system: OVCAR-4
MDA-MB-231 = system: MDA-MB-231
COLO 205 = system: COLO 205
HOP-92 = system: HOP-92
OVCAR-8 = system: OVCAR-8
BT-549 = system: BT-549
IGROV-1 = system: IGROV-1
786-0 = system: 786-0
MDA-MB-435 = system: MDA-MB-435
SF-268 = system: SF-268
UACC-62 = system: UACC-62
SN12C = system: SN12C
OVCAR-3 = system: OVCAR-3
MOLT-4 = system: MOLT-4
SF-295 = system: SF-295
SNB-19 = system: SNB-19
SK-MEL-5 = system: SK-MEL-5
U-251 = system: U-251
SK-MEL-28 = system: SK-MEL-28
HCT-116 = system: HCT-116

Structure (SMILES): CN1C(=O)c2cccc3cc([N+](=O)[O-])cc(c23)C1=O
- GI50 (M14): > 10 µM (inactive)
- GI50 (Hs-578T): > 10 µM (inactive)
- GI50 (Malme-3M): > 10 µM (inactive)
- GI50 (K562): > 10 µM (inactive)
- GI50 (LOX IMVI): > 10 µM (inactive)
- GI50 (CCRF-CEM): > 10 µM (inactive)
- GI50 (DU-145): > 10 µM (inactive)
- GI50 (HL-60): > 10 µM (inactive)
- GI50 (SF-539): > 10 µM (inactive)
- GI50 (MDA-N): > 10 µM (inactive)
- GI50 (NCI-H23): 9.08 µM (inactive)
- GI50 (SW-620): > 10 µM (inactive)
- GI50 (SK-OV-3): > 10 µM (inactive)
- GI50 (CAKI-1): > 10 µM (inactive)
- GI50 (HCT-15): > 10 µM
- GI50 (HOP-62): > 10 µM (inactive)
- GI50 (HCC 2998): > 10 µM (inactive)
- GI50 (PC-3): > 10 µM (inactive)
- GI50 (T47D): > 10 µM (inactive)
- GI50 (MCF7): 4.05 µM (inactive)
- GI50 (SR): > 10 µM (inactive)
- GI50 (TK-10): > 10 µM (inactive)
- GI50 (ACHN): > 10 µM (inactive)
- GI50 (A549): > 10 µM (inactive)
- GI50 (HT-29): > 10 µM (inactive)
- GI50 (SNB-75): > 10 µM (inactive)
- GI50 (RPMI-8226): > 10 µM (inactive)
- GI50 (NCI-H522): 5.65 µM (inactive)
- GI50 (KM12): > 10 µM (inactive)
- GI50 (OVCAR-5): > 10 µM (inactive)
- GI50 (NCI/ADR-RES): > 10 µM (inactive)
- GI50 (UACC-257): > 10 µM (inactive)
- GI50 (OVCAR-4): > 10 µM (inactive)
- GI50 (MDA-MB-231): > 10 µM (inactive)
- GI50 (COLO 205): > 10 µM (inactive)
- GI50 (HOP-92): > 10 µM (inactive)
- GI50 (OVCAR-8): > 10 µM (inactive)
- GI50 (BT-549): > 10 µM (inactive)
- GI50 (IGROV-1): > 10 µM (inactive)
- GI50 (786-0): > 10 µM (inactive)
- GI50 (MDA-MB-435): > 10 µM (inactive)
- GI50 (SF-268): 9.25 µM (inactive)
- GI50 (UACC-62): > 10 µM (inactive)
- GI50 (SN12C): > 10 µM (inactive)
- GI50 (OVCAR-3): > 10 µM (inactive)
- GI50 (MOLT-4): 5.04 µM (inactive)
- GI50 (SF-295): > 10 µM (inactive)
- GI50 (SNB-19): > 10 µM (inactive)
- GI50 (SK-MEL-5): > 10 µM (inactive)
- GI50 (U-251): > 10 µM (inactive)
- GI50 (SK-MEL-28): > 10 µM (inactive)
- GI50 (HCT-116): 8.61 µM (inactive)
